Here are results for 4 compounds from publication PMC8550792, “Evolution of kinase polypharmacology across HSP90 drug discovery” (Cell Chemical Biology, 2021).

The structures appear in SMILES notation.

What all share (assay): biochemical
Holding throughout (assay type): biochemical

Assay [1] deals with T1, 382 unique human kinases (Homo sapiens, UniProt P00533, L858R).
T1 construct: purchased Reaction Biology (HotSpot contract assay)
To be noted: kinase EGFR (L858R), compound 10 uM; for remaining activity at 10 µM: read-out: % Enzyme Activity (relative to DMSO controls).

The target in assay [2] is T2, 382 unique human kinases (Homo sapiens, UniProt Q6P3R8).
T2 construct: purchased Reaction Biology (HotSpot contract assay)
T2 sequence (Q6P3R8 1-708): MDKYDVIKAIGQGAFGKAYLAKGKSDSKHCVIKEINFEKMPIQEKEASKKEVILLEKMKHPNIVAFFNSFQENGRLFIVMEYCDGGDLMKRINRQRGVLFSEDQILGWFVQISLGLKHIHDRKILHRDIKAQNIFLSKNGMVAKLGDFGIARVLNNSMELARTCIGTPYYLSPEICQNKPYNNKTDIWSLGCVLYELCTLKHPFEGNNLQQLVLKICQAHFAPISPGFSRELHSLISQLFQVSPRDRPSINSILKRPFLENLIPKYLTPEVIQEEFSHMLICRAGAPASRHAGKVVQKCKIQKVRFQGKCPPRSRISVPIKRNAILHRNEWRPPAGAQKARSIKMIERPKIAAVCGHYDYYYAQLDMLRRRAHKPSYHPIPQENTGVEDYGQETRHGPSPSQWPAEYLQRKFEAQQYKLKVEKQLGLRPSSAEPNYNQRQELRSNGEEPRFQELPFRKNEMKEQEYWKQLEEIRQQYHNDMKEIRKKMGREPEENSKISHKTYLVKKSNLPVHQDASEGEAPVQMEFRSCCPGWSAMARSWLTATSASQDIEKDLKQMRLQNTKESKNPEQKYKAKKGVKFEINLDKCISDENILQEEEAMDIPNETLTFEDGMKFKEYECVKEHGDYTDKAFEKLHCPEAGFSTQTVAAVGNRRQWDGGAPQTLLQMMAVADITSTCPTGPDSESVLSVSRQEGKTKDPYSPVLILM
The settings on record: NEK5, 10 uM; for remaining activity at 10 µM: read-out: % Enzyme Activity (relative to DMSO controls).

Assay [3] deals with T3, 382 unique human kinases (Homo sapiens, UniProt Q9Y243, G171R).
T3 construct: purchased Reaction Biology (HotSpot contract assay)
T3 sequence (Q9Y243 whole entry G171R): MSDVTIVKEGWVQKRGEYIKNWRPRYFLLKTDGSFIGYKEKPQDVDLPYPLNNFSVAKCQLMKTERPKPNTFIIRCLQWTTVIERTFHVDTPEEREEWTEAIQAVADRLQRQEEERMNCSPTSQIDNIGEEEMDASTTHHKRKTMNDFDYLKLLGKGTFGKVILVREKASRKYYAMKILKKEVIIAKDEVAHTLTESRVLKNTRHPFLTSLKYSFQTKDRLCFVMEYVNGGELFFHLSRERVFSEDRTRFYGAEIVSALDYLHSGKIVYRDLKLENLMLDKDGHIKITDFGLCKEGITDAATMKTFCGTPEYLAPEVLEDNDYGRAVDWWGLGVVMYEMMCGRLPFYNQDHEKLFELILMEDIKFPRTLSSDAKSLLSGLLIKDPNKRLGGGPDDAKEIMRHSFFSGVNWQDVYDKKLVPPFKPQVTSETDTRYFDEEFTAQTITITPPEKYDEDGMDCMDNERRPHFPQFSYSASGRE
The settings on record: AKT3 (G171R), 10 uM; for remaining activity at 10 µM: read-out: % Enzyme Activity (relative to DMSO controls).

The target of assay [4] is T4, 382 unique human kinases (Homo sapiens, UniProt P54762).
T4 construct: purchased Reaction Biology (HotSpot contract assay)
T4 sequence (P54762 18-984): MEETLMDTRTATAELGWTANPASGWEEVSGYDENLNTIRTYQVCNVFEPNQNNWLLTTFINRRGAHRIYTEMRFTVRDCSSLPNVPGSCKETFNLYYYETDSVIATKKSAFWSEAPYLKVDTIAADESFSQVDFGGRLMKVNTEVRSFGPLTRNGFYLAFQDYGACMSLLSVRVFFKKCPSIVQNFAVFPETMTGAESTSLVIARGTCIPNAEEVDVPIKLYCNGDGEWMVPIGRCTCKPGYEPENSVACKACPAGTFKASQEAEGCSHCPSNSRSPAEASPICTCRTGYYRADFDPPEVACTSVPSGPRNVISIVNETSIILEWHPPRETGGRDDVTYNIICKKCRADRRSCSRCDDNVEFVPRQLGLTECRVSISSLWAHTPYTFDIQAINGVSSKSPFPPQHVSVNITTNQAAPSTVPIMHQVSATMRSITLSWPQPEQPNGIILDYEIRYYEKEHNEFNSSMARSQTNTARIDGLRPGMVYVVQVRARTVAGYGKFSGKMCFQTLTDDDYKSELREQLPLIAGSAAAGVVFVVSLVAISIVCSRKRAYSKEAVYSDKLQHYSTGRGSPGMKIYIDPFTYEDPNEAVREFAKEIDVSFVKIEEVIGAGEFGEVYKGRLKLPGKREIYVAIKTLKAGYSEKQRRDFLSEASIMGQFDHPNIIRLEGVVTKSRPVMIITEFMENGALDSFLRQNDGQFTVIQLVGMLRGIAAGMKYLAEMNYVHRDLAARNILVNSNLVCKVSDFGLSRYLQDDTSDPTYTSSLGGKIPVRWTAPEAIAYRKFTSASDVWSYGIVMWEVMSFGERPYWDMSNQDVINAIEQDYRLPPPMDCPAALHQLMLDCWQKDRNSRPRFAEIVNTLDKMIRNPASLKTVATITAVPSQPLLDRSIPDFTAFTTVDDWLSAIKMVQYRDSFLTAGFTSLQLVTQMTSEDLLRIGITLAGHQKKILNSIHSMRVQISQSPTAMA
The settings on record: EPHB1, [ATP] 100 µM, compound 10 uM; for remaining activity at 10 µM: read-out: % Enzyme Activity (relative to DMSO controls).

In assay [5] the target is T5, 382 unique human kinases (Homo sapiens, UniProt Q32MK0).
T5 construct: purchased Reaction Biology (HotSpot contract assay)
T5 sequence (Q32MK0 1-819): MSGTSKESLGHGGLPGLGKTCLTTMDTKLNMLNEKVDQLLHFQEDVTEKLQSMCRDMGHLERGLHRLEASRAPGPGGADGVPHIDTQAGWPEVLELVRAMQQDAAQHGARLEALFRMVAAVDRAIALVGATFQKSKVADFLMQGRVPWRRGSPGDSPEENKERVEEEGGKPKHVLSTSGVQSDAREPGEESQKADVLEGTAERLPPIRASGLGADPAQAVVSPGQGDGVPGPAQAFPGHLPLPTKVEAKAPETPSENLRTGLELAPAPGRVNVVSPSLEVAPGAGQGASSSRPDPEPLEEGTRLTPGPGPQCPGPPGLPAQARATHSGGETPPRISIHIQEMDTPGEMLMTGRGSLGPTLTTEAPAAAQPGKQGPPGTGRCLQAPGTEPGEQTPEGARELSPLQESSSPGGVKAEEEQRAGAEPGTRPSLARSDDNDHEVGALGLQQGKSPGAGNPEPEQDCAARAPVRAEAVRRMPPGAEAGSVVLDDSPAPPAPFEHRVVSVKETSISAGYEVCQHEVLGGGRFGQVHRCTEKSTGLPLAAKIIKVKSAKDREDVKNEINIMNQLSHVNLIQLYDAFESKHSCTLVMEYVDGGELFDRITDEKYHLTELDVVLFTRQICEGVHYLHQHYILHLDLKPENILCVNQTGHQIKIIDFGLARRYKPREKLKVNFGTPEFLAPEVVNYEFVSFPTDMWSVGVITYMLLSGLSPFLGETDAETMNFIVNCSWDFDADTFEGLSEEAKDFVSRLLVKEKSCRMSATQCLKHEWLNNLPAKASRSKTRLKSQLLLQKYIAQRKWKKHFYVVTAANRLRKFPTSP
To be noted: MYLK3, 10 uM; for remaining activity at 10 µM: read-out: % Enzyme Activity (relative to DMSO controls).

For `CC(C)c1cc(-c2n[nH]c(=O)n2-c2ccc3c(ccn3C)c2)c(O)cc1O` [Ganetespib (STA9090)], the remaining activity at 10 µM was 88.8% on 382 unique human kinases [1], 105% at 382 unique human kinases [2] and 67.1% on 382 unique human kinases [3].

For the compound `CC(C)c1cc(-c2n[nH]c(=O)n2-c2ccc3c(ccn3C)c2)c(O)cc1O` [Ganetespib], the remaining activity at 10 µM on 382 unique human kinases [4] is 36%; at 382 unique human kinases [5], 100%.

On to `CCNC(=O)c1noc(-c2cc(C(C)C)c(O)cc2O)c1-c1ccc(CN2CCOCC2)cc1` [Luminespib (AUY-922)], for which the “% Enzyme Activity (relative to DMSO controls)” value at 382 unique human kinases [1] was found to be 96.48%; at 382 unique human kinases [2], 66.42%; on 382 unique human kinases [3] it was 93.37%. The remaining activity at 10 µM at 382 unique human kinases [1] stood at 97%; on 382 unique human kinases [2], 70.4%; on 382 unique human kinases [3] it was 98.6%.

Regarding `CCNC(=O)c1noc(-c2cc(C(C)C)c(O)cc2O)c1-c1ccc(CN2CCOCC2)cc1` [Luminespib], at 382 unique human kinases [4], the “% Enzyme Activity (relative to DMSO controls)” value was 90.73% and the remaining activity at 10 µM was 92.3%. On 382 unique human kinases [5], the “% Enzyme Activity (relative to DMSO controls)” value came out at 99.89% and the remaining activity at 10 µM is 100%.
